In US8691804B2 (Evotec AG, priority 2008, dated 2014) one finds IC50 data, which are given here for 33 compounds.

For orientation: IC50 means the concentration at which inhibition is half-maximal.

The target of the experiment is T1, human H3 receptors (Homo sapiens, UniProt Q9Y5N1).
T1 construct: host or cells: CHO-K1
T1 sequence (Q9Y5N1 whole entry): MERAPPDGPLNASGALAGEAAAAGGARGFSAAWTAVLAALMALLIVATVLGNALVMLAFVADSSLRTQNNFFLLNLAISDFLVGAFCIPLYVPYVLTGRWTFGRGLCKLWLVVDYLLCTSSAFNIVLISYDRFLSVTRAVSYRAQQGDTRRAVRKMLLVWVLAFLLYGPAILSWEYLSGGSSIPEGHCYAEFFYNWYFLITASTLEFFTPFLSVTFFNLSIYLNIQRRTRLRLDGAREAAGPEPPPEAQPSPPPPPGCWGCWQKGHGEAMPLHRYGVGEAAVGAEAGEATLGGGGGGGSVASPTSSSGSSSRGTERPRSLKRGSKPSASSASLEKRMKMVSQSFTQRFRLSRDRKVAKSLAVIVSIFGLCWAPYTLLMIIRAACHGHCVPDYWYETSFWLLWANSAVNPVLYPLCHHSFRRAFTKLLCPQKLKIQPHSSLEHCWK
As to the kind of experiment: cAMP quantification assay for human H3 receptor testing. The format is cell-based. The following applies: CHO-K1 cells expressing human H3 receptors; inhibition of agonist-induced decrease of cAMP; 100 nM histamine, 10 μM forskolin; read-out: Potency range (IC50 values). Here is the method:
CHO—K1 cell line expressing human H3 receptors were purchased from Euroscreen (Gosselies, Belgium, Cat. no.: ES-392-C)
Human H3 receptor-expressing cell-lines were grown in Ham's F12 [Sigma, Cat. no. N6658], supplemented with 10% FBS [Sigma, Cat. no. F9665], 400 μg/ml G418 [Sigma, Cat. no. N1876] and 250 μg/ml Zeocin [Invitrogen, Cat. no. 46-0509]) according to the protocol provided by Euroscreen.
The assay measures the ability of test compounds to inhibit Histamine receptor agonist-induced decrease of intracellular free cAMP (receptor is Gi coupled).
Specifically, a cAMP quantification assay system from DiscoveRx (cAMP XS+; Cat. no. 90-0075) was used.
For the cAMP assay, confluent cells were detached from the culture vessels with 1× trypsin-EDTA solution (Sigma), and seeded into 384-well Costar plates (white, clear bottom, Cat. no. 3707) at a density of 10,000 cells per well. Cells were seeded in a volume of 50 μl in medium without antibiotics and incubated overnight in a humidified atmosphere with 5% CO2 at 37° C. The cAMP assay was performed according to the protocol provided by DiscoveRx.
The cell culture medium was removed and the cells washed once with PBS (50 μl per well). The plates were emptied by inversion and 7.5 μl/well of compound in PBS (containing 1 mM IBMX and 0.03% BSA) were added and incubated for 30 min at 37° C.
Subsequent 7.5 μl/well specific agonist solution was added and the plates for another 30 min incubated at 37° C.
hH3:100 nM histamine, 10 μM forskolin in PBS (containing 1 mM IBMX and 0.03% BSA)
After the incubation with the agonist, 5 μl/well cAMP XS antibody solution was added followed by 20 μl/well Gal/EII/Lysis (1:5:19)+ED (1:1). The plates were incubated for one hour at room temperature and afterwards 20 μl/well EA reagent was added. The luminescence was developed for approximately three hours at room temperature and the plates were read out using a ‘BMG Novostar’ plate reader.
Test compounds were assayed at 8 concentrations in triplicate. Serial 10-fold dilutions in 100% DMSO were made at a 100-times higher concentration than the final concentration and then diluted with a 2 step protocol in assay buffer to reach the required assay concentrations and 1% DMSO. […]
On to `O=C(N1CCCN(C2CCC2)CC1)N1CC(O)C1` [Example 1, 1-[(4-cyclobutyl-1,4-diazepan-1-yl)carbonyl]azetidin-3-ol], for which the IC50 is less than 100 nM.

In the case of `O=C(N1CCN(C2CCC2)CC1)N1CC(O)C1` [Example 2, 1-[(4-cyclobutylpiperazin-1-yl)carbonyl]azetidin-3-ol], the IC50 lay in the range of 500 to 5000 nM. Take `CNC(=O)c1ccc(OC2CN(C(=O)N3CCCN(C4CCC4)CC3)C2)nc1` [Example 3, 6-({1-[(4-cyclobutyl-1,4-diazepan-1-yl)carbonyl]azetidin-3-yl}oxy)-N-methylpyridine-3-carboxamide]: the concentration for half-maximal inhibition (IC50) is less than 100 nM. On to `NC(=O)c1ccc(OC2CN(C(=O)N3CCCN(C4CCC4)CC3)C2)cn1` [Example 4, 5-({1-[(4-cyclobutyl-1,4-diazepan-1-yl)carbonyl]azetidin-3-yl}oxy)pyridine-2-carboxamide], for which the IC50 is less than 100 nM. In the case of `CNC(=O)c1ccc(OC2CN(C(=O)N3CCCN(C4CCC4)CC3)C2)cn1` [Example 5, 5-({1-[(4-cyclobutyl-1,4-diazepan-1-yl)carbonyl]azetidin-3-yl}oxy)-N-methylpyridine-2-carboxamide] it was less than 100 nM.

For the compound `CN(C)C(=O)c1ccc(OC2CN(C(=O)N3CCCN(C4CCC4)CC3)C2)cn1` [Example 6, 5-({1-[(4-cyclobutyl-1,4-diazepan-1-yl)carbonyl]azetidin-3-yl}oxy)-N,N-dimethylpyridine-2-carboxamide], the IC50 was less than 100 nM. In the case of `CCN(CC)C(=O)c1ccc(OC2CN(C(=O)N3CCCN(C4CCC4)CC3)C2)cn1` [Example 7, 5-({1-[(4-cyclobutyl-1,4-diazepan-1-yl)carbonyl]azetidin-3-yl}oxy)-N,N-diethylpyridine-2-carboxamide] it was less than 100 nM; in that of `CNC(=O)c1ccc(OC2CN(C(=O)N3CCCN(C4CCC4)CC3)C2)cc1` [Example 8, 4-({1-[(4-cyclobutyl-1,4-diazepan-1-yl)carbonyl]azetidin-3-yl}oxy)-N-methylbenzamide], less than 100 nM; in that of `CN(C)C(=O)c1ccc(OC2CN(C(=O)N3CCCN(C4CCC4)CC3)C2)cc1` [Example 9, 4-({1-[(4-cyclobutyl-1,4-diazepan-1-yl)carbonyl]azetidin-3-yl}oxy)-N,N-dimethylbenzamide], less than 100 nM. With `O=C(N1CCCN(C2CCC2)CC1)N1CC(Oc2ccc(C(F)(F)F)cc2)C1` [Example 10, 1-cyclobutyl-4-({3-[4-(trifluoromethyl)phenoxy]azetidin-1-yl}carbonyl)-1,4-diazepane], the IC50 is less than 100 nM. In the case of `O=C(N1CCCN(C2CCC2)CC1)N1CC(Oc2ccc(C(F)(F)F)cn2)C1` [Example 11, 1-cyclobutyl-4-[(3-{[5-(trifluoromethyl)pyridin-2-yl]oxy}azetidin-1-yl)carbonyl]-1,4-diazepane] it was less than 100 nM; in that of `N#Cc1ccc(OC2CN(C(=O)N3CCCN(C4CCC4)CC3)C2)cc1` [Example 12, 4-({1-[(4-cyclobutyl-1,4-diazepan-1-yl)carbonyl]azetidin-3-yl}oxy)benzonitrile], less than 100 nM; in that of `O=C(N1CCCN(C2CCC2)CC1)N1CC(Oc2ccc(F)cc2)C1` [Example 13, 1-cyclobutyl-4-{[3-(4-fluorophenoxy)azetidin-1-yl]carbonyl}-1,4-diazepane], less than 100 nM. On to `O=C(N1CCCN(C2CCC2)CC1)N1CC(Oc2ccc(Cl)cc2)C1` [Example 14, 1-{[3-(4-chlorophenoxy)azetidin-1-yl]carbonyl}-4-cyclobutyl-1,4-diazepane], for which the IC50 is less than 100 nM. Then `O=C(N1CCCN(C2CCC2)CC1)N1CC(Oc2ccccc2)C1` [Example 15, 1-cyclobutyl-4-[(3-phenoxyazetidin-1-yl)carbonyl]-1,4-diazepane], with less than 100 nM.

`O=C(N1CCCN(C2CCC2)CC1)N1CC(Oc2ccc(Cn3cccn3)cc2)C1` [Example 16, 1-cyclobutyl-4-({3-[4-(1H-pyrazol-1-ylmethyl)phenoxy]azetidin-1-yl}carbonyl)-1,4-diazepane]: the IC50 is less than 100 nM. In the case of `O=C(N1CCCN(C2CCC2)CC1)N1CC(Oc2ccc(Cn3cccn3)cn2)C1` [Example 17, 1-cyclobutyl-4-[(3-{[5-(1H-pyrazol-1-ylmethyl)pyridin-2-yl]oxy}azetidin-1-yl)carbonyl]-1,4-diazepane] it was less than 100 nM; in that of `O=C(N1CCCN(C2CCC2)CC1)N1CC(Oc2ccc(N3CCCC3=O)cc2)C1` [Example 18, 1-[4-({1-[(4-cyclobutyl-1,4-diazepan-1-yl)carbonyl]azetidin-3-yl}oxy)phenyl]pyrrolidin-2-one], less than 100 nM.

`O=C(N1CCCN(C2CCC2)CC1)N1CC(Oc2ccc(CN3CCCCC3)cc2)C1` [Example 19, 1-cyclobutyl-4-({3-[4-(piperidin-1-ylmethyl)phenoxy]azetidin-1-yl}carbonyl)-1,4-diazepane]: the IC50 was less than 100 nM. In the case of `CN1CCN(Cc2ccc(OC3CN(C(=O)N4CCCN(C5CCC5)CC4)C3)cc2)CC1` [Example 20, 1-cyclobutyl-4-[(3-{4-[(4-methylpiperazin-1-yl)methyl]phenoxy}azetidin-1-yl)carbonyl]-1,4-diazepane] it was less than 100 nM; in that of `O=C(N1CCCN(C2CCC2)CC1)N1CC(Oc2ccc(CN3CCC(F)(F)CC3)cc2)C1` [Example 21, 1-cyclobutyl-4-[(3-{4-[(4,4-difluoropiperidin-1-yl)methyl]phenoxy}azetidin-1-yl)carbonyl]-1,4-diazepane], less than 100 nM.

In the case of `O=C(N1CCCN(C2CCC2)CC1)N1CC(Oc2ccc(Br)cn2)C1` [Example 22, 1-({3-[(5-bromopyridin-2-yl)oxy]azetidin-1-yl}carbonyl)-4-cyclobutyl-1,4-diazepane], the IC50 was less than 100 nM. For `O=C(N1CCCN(C2CCC2)CC1)N1CC(Oc2ccc(Cl)c(Cl)c2)C1` [Example 23, 1-cyclobutyl-4-{[3-(3,4-dichlorophenoxy)azetidin-1-yl]carbonyl}-1,4-diazepane], the IC50 is less than 100 nM. In the case of `O=C(N1CCCN(C2CCC2)CC1)N1CC(Oc2ccc(Br)nc2)C1` [Example 24, 1-({3-[(6-bromopyridin-3-yl)oxy]azetidin-1-yl}carbonyl)-4-cyclobutyl-1,4-diazepane] it was less than 100 nM; in that of `Cc1cc(Cl)ccc1OC1CN(C(=O)N2CCCN(C3CCC3)CC2)C1` [Example 25, 1-{[3-(4-chloro-2-methylphenoxy)azetidin-1-yl]carbonyl}-4-cyclobutyl-1,4-diazepane], less than 100 nM; in that of `O=C(N1CCCN(C2CCC2)CC1)N1CC(Oc2ccc(-n3ccnc3)cc2)C1` [Example 26, 1-cyclobutyl-4-({3-[4-(1H-imidazol-1-yl)phenoxy]azetidin-1-yl}carbonyl)-1,4-diazepane], less than 100 nM.

Consider `Cc1cc(OC2CN(C(=O)N3CCCN(C4CCC4)CC3)C2)ccn1` [Example 27, 1-cyclobutyl-4-({3-[(2-methylpyridin-4-yl)oxy]azetidin-1-yl}carbonyl)-1,4-diazepane], for which the IC50 is less than 100 nM. For the compound `O=C(N1CCCN(C2CCC2)CC1)N1CC(Oc2cccc(C(F)(F)F)c2)C1` [Example 28, 1-cyclobutyl-4-({3-[3-(trifluoromethyl)phenoxy]azetidin-1-yl}carbonyl)-1,4-diazepane], the IC50 was less than 100 nM. Then `O=C(N1CCCN(C2CCC2)CC1)N1CC(Oc2ccccc2C(F)(F)F)C1` [Example 29, 1-cyclobutyl-4-({3-[2-(trifluoromethyl)phenoxy]azetidin-1-yl}carbonyl)-1,4-diazepane], with less than 100 nM; and `N#Cc1cccc(OC2CN(C(=O)N3CCCN(C4CCC4)CC3)C2)c1` [Example 30, 3-({1-[(4-cyclobutyl-1,4-diazepan-1-yl)carbonyl]azetidin-3-yl}oxy)benzonitrile], with less than 100 nM; and `N#Cc1ccccc1OC1CN(C(=O)N2CCCN(C3CCC3)CC2)C1` [Example 31, 2-({1-[(4-cyclobutyl-1,4-diazepan-1-yl)carbonyl]azetidin-3-yl}oxy)benzonitrile], with less than 100 nM.

As for `O=C(N1CCCN(C2CCC2)CC1)N1CC(Oc2cccc(Cl)c2)C1` [Example 32, 1-{[3-(3-chlorophenoxy)azetidin-1-yl]carbonyl}-4-cyclobutyl-1,4-diazepane], the IC50 was less than 100 nM. Then `O=C(N1CCCN(C2CCC2)CC1)N1CC(Oc2ccccc2Cl)C1` [Example 33, 1-{[3-(2-chlorophenoxy)azetidin-1-yl]carbonyl}-4-cyclobutyl-1,4-diazepane], with less than 100 nM.
